In US20040171511A1, “Allergen removing agent” (priority 2001, published 2004):

Text: Component (c1-1) is preferably in a state that it is soluble in the allergen-removing agent.

solubility in component (a): ≥ 5 g/100 g
solubility in water: ≤ 0.3 g/100 g
SMILES: CCCCCCCCCCCCCCCCO [palmityl alcohol]
